What was measured:
[1] = system: vascular smooth muscle cells; assay: Investigation of calcification of vascular smooth muscle cells (silver nitrate staining, optical microscope); format: cell-based, cattle; settings: inorganic phosphate (Pi)-induced, 100 and 200 μM, cultured 10 days, FIG. 1
Description: The surrounding tissues were removed from the thoracoabdominal aorta isolated from male cattle, and endothelial cells that line blood vessels were removed. The cleaned blood vessels were divided into small fragments, which were then aligned on a culture dish containing Dulbecco's modified Eagle's medium (DMEM, Low Glucose, Thermo Fisher Scientific, USA) supplemented with 20% fetal bovine serum (FBS, Hyclone, Australia). Thereafter, culturing was performed in a cell incubator at 37° C. and 5% CO2 for 3-4 weeks. The vascular smooth muscle cells stretching out around the vascular tissues were subjected to primary culture with media changed every two days.
The vascular smooth muscle cells cultured in Preparation Example 1 above were stabilized by subculture in DMEM (high glucose) supplemented with penicillin/streptomycin antibiotics and 10% FBS. […]
After the induction of calcification by the method in Preparation Example 2 above, the media were removed from the culture dishes, followed by washing with phosphate buffer saline (PBS) three times. […] Thereafter, the cells were washed with primary distilled water two or three times, and then were determined for a degree of calcification through an optical microscope (BX53 microscope, Olympus, Japan).

C57BL/6J mice [2] = assay: In vivo vitamin D3-induced vascular calcification, Von Kossa staining of aorta; settings: FIG. 3
Description: (§1) C57BL/6J mice aged 8-9 weeks were grouped into 5 groups of 7 mice each, and four groups (one group being used as a control) underwent the induction of vascular calcification by subcutaneous administration of a high dose (9.0×10^5 IU) of vitamin D3 (Vit. D3) once a day for a total of 3 days.
First, on the 10th day after the administration of vitamin D3, the mice were sacrificed and the abdomen was opened, and then the aorta was separated by cleanly removing surrounding tissues of the aorta, and fixed with 4% paraformaldehyde (PFA) for 24 hours. The fixed aorta was washed, immersed in a 5% silver nitrate solution, and incubated under UV light for 30 minutes.

[3] = system: vascular smooth muscle cells; assay: Quantification of calcium in vascular smooth muscle cells; format: cell-based, cattle; settings: inorganic phosphate-induced, 100 and 200 μM, corrected by protein amount, p<0.01 vs Vehicle, FIG. 2
Description: The surrounding tissues were removed from the thoracoabdominal aorta isolated from male cattle, and endothelial cells that line blood vessels were removed. The cleaned blood vessels were divided into small fragments, which were then aligned on a culture dish containing Dulbecco's modified Eagle's medium (DMEM, Low Glucose, Thermo Fisher Scientific, USA) supplemented with 20% fetal bovine serum (FBS, Hyclone, Australia). Thereafter, culturing was performed in a cell incubator at 37° C. and 5% CO2 for 3-4 weeks. The vascular smooth muscle cells stretching out around the vascular tissues were subjected to primary culture with media changed every two days. […]
After the induction of calcification by the method in Preparation Example 2 above, the media were removed from the culture dishes, followed by washing with PBS. Then, the cells were decalcified by treatment with 0.6 N HCl at 4° C. for 24 hours, The supernatant was recovered for the use in the quantification of calcium, and proteins were extracted from the cells by using 0.1 N NaOH/0.1% SDS, and quantified by using the BCA method. […]
(ODSAMPLE and ODBLANK represent the OD612nm values of calcium sample and blank (water), respectively; and the slope represents the inclination value on the measured absorbance graph)

C57BL/6J mice [4] = assay: In vivo vitamin D3-induced vascular calcification, calcium quantification in aorta; settings: FIG. 4
Description: as §1
Additionally, on the 10th day after the administration of vitamin D3, the mice were sacrificed and the abdomen was opened, and then the aorta was separated by cleanly removing surrounding tissues and frozen in liquid nitrogen. The frozen tissues were thawed, weighed after the removal of moisture, and then subjected to decalcification with a 0.6 N HCl solution. The colorimetric Ca quantification kit (Bioassay DICA-500) was used to quantify calcium in the 0.6 N HCl solution used in the decalcification, and the calcium quantification was corrected by using the tissue weight.

SMILES	calcification (black dots) [1]	colored parts of aorta (Von Kossa staining) (C57BL/6J mice [2]; 10 mg/kg and 30 mg/kg oral once a day for 13 days)	degree of recovery compared with the DCA administration group (positive control) (C57BL/6J mice [2]; 30 mg/kg oral)	calcium amount increased by inorganic phosphate [3]	amount of calcium in the aorta (C57BL/6J mice [4]; 10 mg/kg and 30 mg/kg oral once a day for 13 days, corrected by tissue weight)	degrees of decrease of calcium compared with the DCA group (positive control) (C57BL/6J mice [4]; 10 mg/kg and 30 mg/kg oral)
CC(=C(CCO)SSCC1CCCO1)N(C=O)Cc1cnc(C)nc1N (stereo in doubt) [fursultiamine, thiamine tetrahydrofurfuryl disulfide]	inhibited	reduced (recovered) dose-dependently	excellent	decreased	decreased dose-dependently	excellent
C=CCSS/C(CCO)=C(/C)N(C=O)Cc1cnc(C)nc1N [allithiamine, thiamine allyl disulfide]	inhibited	–	–	decreased	–	–
